Counter-ions that a name gives are not always drawn.
How the values were obtained:
CML = details: standard of therapy for CML; cited from earlier work
[1] = system: primary CD34+ CP CML cells; experiment: Colony forming assay and serial re-plating of primary CML cells; assay type: cell-based, human; details: for proliferation index (PI) of re-plated colonies (AUC): 3d nilotinib and/or compound A exposure, 132 colonies per arm, compared to untreated cells, FIG. 7
Protocol: Primary cells were obtained from newly diagnosed and untreated patients with CML in chronic phase. These cells were enriched for CD34+using magnetic-activated cell sorting prior to cryopreservation in 10% DMSO and 4% human albumin solution in liquid nitrogen. Samples were thawed and washed in a solution of DNAse, human albumin solution, magnesium chloride, and phosphate buffered saline. Upon thaw primary cells were cultured in a serum free medium comprising of Iscove's Modified Dulbecco Medium with bovine serum albumin, insulin, transferring, P2 mercaptoethanol and growth factors (100 ng/mL Flt3-ligand, 100 ng/mL stem cell factor, 20 ng/mL interleukin (IL)-3, IL-6 and 50 ng/mL granulocyte-colony stimulating factor) for 24 hours.
Viable cells were enumerated using trypan blue dye exclusion and set up in culture in serum free medium (SFM) with the stated concentrations of Compound A and/or nilotinib. Following 72 hours (h) culture the cells were washed twice in phosphate buffered solution (PBS) and viable cells counted, again by trypan blue exclusion. These cells were then used for a series of colony forming and re-plating assays.
In the colony forming assay (CFA) a single cell suspension is created in semisolid media with appropriate cytokines. This enables the assessment of colony formation from each individual cell. In order to measure the effect of compound A and/or nilotinib on the relative abundance of CD34+ CP CML progenitor cells, CFA were set up in METHOCULT with cells plated at an initial concentration of 4000 cells per mL in duplicate. Colonies were identified and enumerated 14-16 days (d) following plating.
An accepted in vitro technique to approximate self-renewal activity is serial re-plating. Colonies derived from a CFA are individually plucked and re-dispersed in further METHOCULT. The capacity to reform colonies following re-dispersion is related to the number of primitive progenitors remaining within each individual colony and is therefore an indirect measurement of self-renewal. Following CFA 20-30 individual non-erythroid colonies from each experimental arm were then plucked with a p10 pipettor (one tip per colony using an inverted microscope) and carefully dispersed into 100 μL METHOCULT with a further 10 μL SFM in 96 well plates prior to incubation for a further 7d. Resultant secondary colonies were enumerated in each well and; in the case of wells containing secondary colonies; the entire contents were re-dispersed in a further 100 μL METHOCULT to assess tertiary colony formation.
Colony assays were performed in METHOCULT with cells plated at an initial concentration of 4000 cells per mL in duplicate. Colonies were identified and enumerated 14-16 days (d) following plating. […]

[2] = system: mouse bone marrow cells infected with Bcr-abl retrovirus; experiment: Methylcellulose colony formation and re-plating of Bcr-Abl infected bone marrow cells; assay type: cell-based; details: 72 h pre-treatment; for colony formation in the first methylcellulose plating: compared to control DMSO group, FIG. 8
Source text: Colony formation was scored 10 days after plating.
FIG. 9. Colonies obtained in the 1st plating experiment of FIG. 8 were resuspended and washed in PBS containing 10% FCS. Cells were resuspended in OPTI-MEM media and plated in methylcellulose at a concentration of 5000 cells per 35 mm plate. Colony formation was scored 10 days after plating.
Mouse bone marrow cells were infected with a bicistronic retroviral Bcr-Abl vector (Bcr-Abl-IRES-GFP). […] Clonogenic colony formation assays assess the self-renewal capacity of early progenitor/stem cells.

[3] = system: bone marrow transplant model of Bcr-Abl to induce CML in mice; experiment: Bone marrow transplant model of Bcr-Abl induced CML, survival; assay type: in vivo, mouse; details: groups of 8 mice; two week treatment; compound A 80 mg/kg po qd, AMN107 75 mg/kg po qd or combination; FIG. 10
Protocol: A bone marrow transplant model of Bcr-Abl was used to induce CML in mice. Briefly, a bicistronic retroviral Bcr-Abl vector (Bcr-Abl-IRES-GFP) was used to produce virus to infect progenitor bone marrow (BM) cells collected from mice previously treated with 5-FU. After 3 rounds of infection, 200,000 GFP positive progenitor BM cells were transplanted into lethally irradiated hosts. Two weeks post-BMT, peripheral blood samples were analyzed by FACS analysis to establish the percentage of GFP positive cells present in the recipient mice. […] During the entire study period the mice were followed for any sign of leukemia development, such as hunched position, lost of body weight or inability of grooming. The animals were sacrificed when they reached any of the previously described signs.

Question: For Cc1ccc(NC(=O)c2ccc(CN3CCN(C)CC3)cc2)cc1Nc1nccc(-c2cccnc2)n1 [Imatinib mesylate], which response rates (CML) is on record?
Answer: more than 96%

Question: Which results are given for Cc1cn(-c2cc(NC(=O)c3ccc(C)c(Nc4nccc(-c5cccnc5)n4)c3)cc(C(F)(F)F)c2)cn1 [nilotinib]?
Answer: re-plating capacity (total number of secondary colonies) ([1]; 3d exposure, Compound A 10 nM and/or nilotinib 5 μM, 4 experiments, FIG. 6): non-significant increase in re-plating capacity; proliferation index (PI) of re-plated colonies (AUC) ([1]; 4 experiments): relative increase in PI; colony formation in the first methylcellulose plating [2]: No reduction of colony formation; number of animals sacrificed to date [3]: 5

Question: With Cc1c(C(=O)Nc2ccc(N3C[C@@H](C)O[C@@H](C)C3)nc2)cccc1-c1ccc(OC(F)(F)F)cc1 [Compound A, 2-Methyl-4′-trifluoromethoxy-biphenyl-3-carboxylic acid [6-(cis-2,6-dimethyl-morpholin-4-yl)-pyridin-3-yl]-amide] as the molecule, how does the “re-plating capacity (total secondary and tertiary colonies as percentage of untreated control)” value ([1]; 72 h culture with drug, first and second re-plate, FIG. 1 and 2) read?
Answer: reduction in re-plating capacity

Question: And the “proliferation index (PI) of re-plated colonies (AUC)” value ([1]; 4 experiments)?
Answer: reduction in PI

Question: And the “colony number upon secondary re-plating of the colonies” value ([2]; FIG. 9)?
Answer: pronounced reduction in colony number

Question: What about the “colony formation in the first methylcellulose plating” value [2] of the same molecule?
Answer: No reduction of colony formation

Question: And the “number of animals sacrificed to date” value [3]?
Answer: all

— US20120329798A1, “METHODS AND COMPOSITIONS FOR TREATING LUEKEMIA” (priority 2009, published 2012)
